According to patent EP1698638A1, “Lipopeptides having pharmaceutical activity” (Technische Universität Berlin, priority 2005, dated 2006):

How the values were obtained:
Type in all cases: cell-based
Candida albicans = assay: serial dilution test, minimum inhibitory concentration (MIC); conditions: RPMI-1640 medium, 35 °C, 24 h
Protocol: (§1) The antifungal activity of the compounds according to the present invention, in particular hassallidin A and hassallidin B, was verified for Aspergillus fumigatus and Candida albicans by minimum inhibitory concentration (MIC) data in a serial dilution test. For each fungus six testing wells of a microtiter plate were prepared with 240 µL medium (Sigma RPMI-1640), 10 µL inoculum suspension and 50 µL fungicide solution (50% MeOH) of different concentrations. Inoculum preparation was carried out by guideline of NCCLS.^25 The fungicide solution preparation took place in a series of twofold dilutions from a stock solution of 92 µg/mL starting with 4.6 µg/50 µL down to 0.14 µg/50 µL. One well was prepared without antifungal agent for unhindered growth as control. The microtiter plates were incubated for Candida albicans and Aspergillus fumigatus at 35 °C for 24 h and 48 h, respectively. Tests were run in triplicates. Inhibition of growth was assessed by comparing the fungal growth of the test samples with the control well by determination of optical density at 595 nm in a microplate reader. The concentration of the well at highest dilution that was still free from growth was assigned the minimum inhibitory concentration (MIC in µg/mL). […] No activities were observed by using Bacillus subtilis, Streptomyces versicolor or Escherchia coli in disk diffusion assays on LB-agar plates with 10 µg hassallidin A in 30 µL 50% MeOH per disk.

Aspergillus fumigatus = assay: as above; conditions: RPMI-1640 medium, 35 °C, 48 h
Protocol: as §1

Escherchia coli = assay: disk diffusion assay on LB-agar plates; conditions: 10 µg in 30 µL 50% MeOH per disk
Protocol: as §1

Streptomyces versicolor = assay: disk diffusion assay on LB-agar plates; conditions: 10 µg in 30 µL 50% MeOH per disk
Protocol: as §1

Bacillus subtilis = assay: disk diffusion assay on LB-agar plates; conditions: 10 µg in 30 µL 50% MeOH per disk
Protocol: as §1

Candida spp. II = assay: microdilution assay (NCCLS), inhibitory concentration (IC); conditions: RPMI-1640 medium
Protocol: (§2) More specifically, a determination of inhibitory concentration (IC) of hassallidin A and hassallidin B for various fungi, Candida species and Candida strains were performed with different media (RPMI-1640 or SAB or AM3) in a microdilution assay by following the guidelines in NCCLS documents M^38-P^25 and M27-A2^26 carried out as follows Each substance was dissolved with 100% dimethyl sulfoxide (Serva, Heidelberg, Germany) to give a stock solution of 3.2 mg/ml followed by nine log2 dilution steps with the solvent. This served as a 100-fold concentrated dilution series ranging from 1.6 mg/ml to 0.003 mg/ml of the test substance. The final concentration of the test substance was 16 µg/ml to 0.031 µg/ml.
(§3) Therefore the 100-fold concentrated dilution series (with 100% DMSO) was diluted to the final concentration by two dilution steps: • (1) Each concentration of the 100-fold concentrated substance was diluted with test medium for 1:50 (for ex.: adding of 13 µl of the test substance to 637 µl test medium). • (2) 100 µl of each 1:50 diluted concentration was filled in a row of wells of a microtitre plate. One well was without the substance but with the 1:50 diluted solvent serving as growth control.
(§4) A further 1:2 dilution of the antifungal was made by the inoculation of each well with 100 µl of the test organism, which was suspended in the test medium. The remaining well of the row was used for sterility control of the medium. The inoculum was strictly prepared according the NCCLS^25 guidelines, resulting in […] for Candida-species and Cryptococcus neoformans. For hyphomycetes CFU's were tenfold higher (see NCCLS). ^26 The growth of the hyphomycetes respectively the inhibition was measured by visual reading with the help of a reading mirror; scoring was done according to NCCLS :^26 score 0 corresponds to a optical clear well or an IC95 or higher, score 1 corresponds to an inhibition of 80 percent (IC80) and the score 2 of the NCCLS definition corresponds to the IC50 values in the tables. The growth of the yeasts was measured spectrophotometrically by a microplate reader (MR 5000, Dynatech laboratories) at 630 nm displaying the optical density (OD). The percent inhibition IC50, IC80 or IC95 (corresponding the scores of 2, 1 and 0) was calculated by the following formula: (100−[(ODof the well−ODof the medium)] × 100)/((ODof the growth control−ODof the medium).) [formula] Table 3. Test series for determining IC values of hassallidin A and B in different media using Candida albicans and Candida krusei. The IC values were measured after 24 h and 48 h at 30 °C.

Candida spp. I = assay: as above; conditions: RPMI-1640 medium
Protocol: as §2, §3, §4

[1] = test system: Fusarium solani RKI 144/03; assay: as above; conditions: RPMI-1640 medium
Protocol: as §2, §3, §4

[2] = test system: Candida albicans ATCC 90028; assay: as above; conditions: RPMI-1640 medium
Protocol: as §2, §3, §4

[3] = test system: Acremonium strictum RKI 226/03; assay: as above; conditions: RPMI-1640 medium
Protocol: as §2, §3, §4

[4] = test system: Aspergillus fumigatus RKI 584/00; assay: as above; conditions: RPMI-1640 medium
Protocol: as §2, §3, §4

[5] = test system: Aspergillus fumigatus RKI 914/02; assay: as above; conditions: RPMI-1640 medium
Protocol: as §2, §3, §4

[6] = test system: Fusarium solani RKI 233/04; assay: as above; conditions: RPMI-1640 medium
Protocol: as §2, §3, §4

**Q.** How did the MIC (Candida albicans) turn out when hassallidin B was run?
**A.** Its MIC is 4.8 µg/mL.

**Q.** And the MIC (Aspergillus fumigatus)?
**A.** Its MIC is 4.8 µg/mL.

**Q.** With hassallidin A as the substance, how does the MIC (Candida albicans) read?
**A.** The MIC was 4.8 µg/mL.

**Q.** What about the MIC (Aspergillus fumigatus) of the same substance?
**A.** Its MIC is 4.8 µg/mL.

**Q.** And the “activity in disk diffusion assay” value (Escherchia coli)?
**A.** Its value is “No activities”.

**Q.** What about the “activity in disk diffusion assay” value (Streptomyces versicolor) of the same substance?
**A.** The value was “No activities”.

**Q.** And the “activity in disk diffusion assay” value (Bacillus subtilis)?
**A.** Its value is “No activities”.

**Q.** And the IC50 (Candida spp. II; 35°C/24h)?
**A.** Its IC50 is 8 µg/mL.

**Q.** And the IC80 (Candida spp. II; 35°C/24h)?
**A.** The IC80 was 8 µg/mL.

**Q.** What about the IC95 (Candida spp. II; 35°C/24h) of the same substance?
**A.** Its IC95 is 8 µg/mL.

**Q.** What about the IC50 (Candida spp. II; 35°C/48h) of the same substance?
**A.** The IC50 was 8 µg/mL.

**Q.** And the IC80 (Candida spp. II; 35°C/48h)?
**A.** Its IC80 is 8 µg/mL.

**Q.** What about the IC95 (Candida spp. II; 35°C/48h) of the same substance?
**A.** Its IC95 is 8 µg/mL.

**Q.** What about the IC50 (Candida spp. I; 35°C/24h) of the same substance?
**A.** Its IC50 is 8 µg/mL.

**Q.** And the IC80 (Candida spp. I; 35°C/24h)?
**A.** Its IC80 is 8 µg/mL.

**Q.** And the IC95 (Candida spp. I; 35°C/24h)?
**A.** Its IC95 is 8 µg/mL.

**Q.** And the IC50 (Candida spp. I; 35°C/48h)?
**A.** The IC50 was 8 µg/mL.

**Q.** What about the IC80 (Candida spp. I; 35°C/48h) of the same substance?
**A.** The IC80 was 8 µg/mL.

**Q.** What about the IC95 (Candida spp. I; 35°C/48h) of the same substance?
**A.** Its IC95 is 8 µg/mL.

**Q.** What about the IC50 ([1]; 30°C/24h) of the same substance?
**A.** The IC50 was 16 µg/mL.

**Q.** And the IC80 ([1]; 30°C/24h)?
**A.** The IC80 was 16 µg/mL.

**Q.** And the IC95 ([1]; 30°C/24h)?
**A.** Its IC95 is greater than 16 µg/mL.

**Q.** And the IC50 ([1]; 30°C/48h)?
**A.** Its IC50 is greater than 16 µg/mL.

**Q.** What about the IC80 ([1]; 30°C/48h) of the same substance?
**A.** Its IC80 is greater than 16 µg/mL.

**Q.** What about the IC95 ([1]; 30°C/48h) of the same substance?
**A.** The IC95 was greater than 16 µg/mL.

**Q.** What about the IC50 ([2]; 35°C/24h) of the same substance?
**A.** Its IC50 is 8 µg/mL.

**Q.** And the IC80 ([2]; 35°C/24h)?
**A.** The IC80 was 8 µg/mL.

**Q.** And the IC95 ([2]; 35°C/24h)?
**A.** The IC95 was 8 µg/mL.

**Q.** And the IC50 ([2]; 35°C/48h)?
**A.** The IC50 was 8 µg/mL.

**Q.** What about the IC80 ([2]; 35°C/48h) of the same substance?
**A.** The IC80 was 8 µg/mL.

**Q.** What about the IC95 ([2]; 35°C/48h) of the same substance?
**A.** The IC95 was 8 µg/mL.

**Q.** What about the IC50 ([3]; 30°C/24h) of the same substance?
**A.** The IC50 was 4 to 8 µg/mL.

**Q.** And the IC80 ([3]; 30°C/24h)?
**A.** Its IC80 is 16 µg/mL.

**Q.** What about the IC95 ([3]; 30°C/24h) of the same substance?
**A.** Its IC95 is 16 µg/mL.

**Q.** And the IC50 ([3]; 30°C/48h)?
**A.** Its IC50 is greater than 16 µg/mL.

**Q.** And the IC80 ([3]; 30°C/48h)?
**A.** Its IC80 is greater than 16 µg/mL.

**Q.** What about the IC95 ([3]; 30°C/48h) of the same substance?
**A.** Its IC95 is greater than 16 µg/mL.

**Q.** And the IC50 ([4]; 35°C/24h)?
**A.** The IC50 was 2 µg/mL.

**Q.** What about the IC80 ([4]; 35°C/24h) of the same substance?
**A.** The IC80 was 2 µg/mL.

**Q.** What about the IC95 ([4]; 35°C/24h) of the same substance?
**A.** Its IC95 is 2 µg/mL.

**Q.** And the IC80 ([4]; 35°C/48h)?
**A.** Its IC80 is 4 µg/mL.

**Q.** And the IC95 ([4]; 35°C/48h)?
**A.** Its IC95 is 4 µg/mL.

**Q.** What about the IC50 ([5]; 35°C/24h) of the same substance?
**A.** The IC50 was 2 µg/mL.

**Q.** And the IC80 ([5]; 35°C/24h)?
**A.** Its IC80 is 2 µg/mL.

**Q.** What about the IC95 ([5]; 35°C/24h) of the same substance?
**A.** The IC95 was 2 µg/mL.

**Q.** And the IC50 ([5]; 35°C/48h)?
**A.** Its IC50 is 2 µg/mL.

**Q.** What about the IC80 ([5]; 35°C/48h) of the same substance?
**A.** The IC80 was 2 µg/mL.

**Q.** What about the IC95 ([5]; 35°C/48h) of the same substance?
**A.** Its IC95 is 4 µg/mL.

**Q.** And the IC50 ([6]; 30°C/24h)?
**A.** Its IC50 is 16 µg/mL.

**Q.** What about the IC80 ([6]; 30°C/24h) of the same substance?
**A.** The IC80 was 16 µg/mL.

**Q.** And the IC95 ([6]; 30°C/24h)?
**A.** Its IC95 is greater than 16 µg/mL.

**Q.** And the IC50 ([6]; 30°C/48h)?
**A.** Its IC50 is greater than 16 µg/mL.

**Q.** What about the IC80 ([6]; 30°C/48h) of the same substance?
**A.** The IC80 was greater than 16 µg/mL.

**Q.** And the IC95 ([6]; 30°C/48h)?
**A.** Its IC95 is greater than 16 µg/mL.
